# Results from patent publication US10130619B2, “Amido thiadiazole derivatives as NADPH oxidase inhibitors” (GENKYOTEX SUISSE SA, priority 2014, dated 2018).
# Target: hNOX1 (Homo sapiens (Human), UniProt Q9Y5S8)
# Assay: ROS production measurement on hNOX1 membranes (Amplex Red fluorescence assay, assay 1)
# Format: biochemical
# Settings: assay 1: membranes from CHO cells overexpressing hNox1, Amplex Red/HRP fluorescence, NADPH 30 μM; non linear regression (GraphPad Prism); read-out: Nox1 inhibitory constant Ki
# Procedure: Reactive oxygen species (ROS) production generated by hNOX1 enzyme was measured by fluorescence in both cellular and membrane-based assays using the Amplex® Red reagent. In the presence of horseradish peroxidase (HRP), the Amplex® Red reagent (10-acetyl-3,7-dihydroxyphenoxazine, AR), which is a colorless and nonfluorescent derivative of dihydroresorufin, reacts with H2O2 with a 1:1 stoichiometry to produce highly fluorescent resorufin at an excitation and emission wavelengths of 544 nm and 590 nm, respectively.
# After resuspension in sonication buffer (11% sucrose, 120 mM NaCl, 1 mM EGTA in PBS, pH 7.4), cells were broken by sonication and centrifuged (200 g, 10 min). The supernatant was layered onto a 17/40% (w/v) discontinuous sucrose gradient and centrifuged (150,000 g for 30 min). Membrane fractions were collected from the 17/40% interface, aliquoted in 10 μl samples and were stored at −80° C. Protein concentration was determined with Bradford reagent. Flavin Adenine Dinucleotide (FAD) (catalog # F6625-500MG), MgCl2 (catalog # M8266-100G), Phosphatidic Acid (PA) (catalog # P3591-50MG) were purchased from Sigma-Aldrich. […] NADPH (catalog #A1395, 0500) was purchased from Applichem. Amplex red (AR) (catalog # A22177) was purchased from Invitrogen. […] FLUOstar OPTIMA microplate reader was supplied by BMG Labtech (Germany). Zephyr® Compact Liquid Handling Workstation was supplied by PerkinElmer (Germany).
# Assay 1: ROS Production Measurement on hNOX1 Membranes
# All solutions were placed on ice and protected from light.
# The NADPH was dissolved in water at a concentration of 12 mM and was transferred in a metal transfer plate kept at 4° C. The NADPH was added to the assay plate to initiate the reaction just before the measurement.
# Serial dilution (1:3, 10 serial dilution) of the compounds was performed in 100% DMSO in 96 well polypropylene plate—Row B-H […], Row A, Column 1-10 contained reference compound. Starting concentration was 10^−2 M (10 mM). Final concentration in assay was 10^−4 M (100 μM). Compounds were diluted twice in PBS buffer by transferring 30 μl/well of PBS into 30 μl/well compounds sample in DMSO using Zephyr® Compact Liquid Handling Workstation. Control wells-columns 1 and 12-contained 60 μl DMSO in 50% PBS pH7.
# Reaction mixture is dispensed using Zephyr® Compact Liquid Handling Workstation. 90 μl of mix with membrane were dispensed into 96 well black plates—Column 2-11, Column 1 Row A-D, Column 12 Row E-H. 90 μl of control mix were dispensed into assay plate—Column 1 Row E-H, Column 12 Row A-D, which are wells for measuring background signal. 2 μl of compounds were dispensed into each well of assay plate using Zephyr® Compact Liquid Handling Workstation. The reaction mixture with compounds was incubated in assay plates for 20 min at 37° C. in a Titramax microplate incubator with gentle agitation. 10 μl of NADPH is dispensed to the assay plate. Fluorescence reading was recorded with the FLUOstar OPTIMA microplate reader for 10 min at 37° C. (8 cycles, 1 cycle duration 55 sec).
# hNOX1, sequence (Q9Y5S8 whole entry): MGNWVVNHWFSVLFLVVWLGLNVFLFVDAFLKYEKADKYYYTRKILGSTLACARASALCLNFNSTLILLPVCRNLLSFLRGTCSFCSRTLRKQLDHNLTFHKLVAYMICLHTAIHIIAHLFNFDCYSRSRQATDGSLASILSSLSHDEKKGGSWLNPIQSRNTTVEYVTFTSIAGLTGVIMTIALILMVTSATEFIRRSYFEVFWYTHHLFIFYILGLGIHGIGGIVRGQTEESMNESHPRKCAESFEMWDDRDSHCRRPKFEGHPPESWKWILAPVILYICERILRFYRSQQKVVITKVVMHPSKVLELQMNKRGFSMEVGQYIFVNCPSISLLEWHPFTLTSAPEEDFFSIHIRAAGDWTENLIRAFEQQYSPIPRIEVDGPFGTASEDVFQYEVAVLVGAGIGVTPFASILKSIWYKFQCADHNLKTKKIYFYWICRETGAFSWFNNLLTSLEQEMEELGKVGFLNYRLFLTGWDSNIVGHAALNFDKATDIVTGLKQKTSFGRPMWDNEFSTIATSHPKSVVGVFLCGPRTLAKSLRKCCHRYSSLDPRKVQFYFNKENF
# hNOX1, sequence (P13498 whole entry partner): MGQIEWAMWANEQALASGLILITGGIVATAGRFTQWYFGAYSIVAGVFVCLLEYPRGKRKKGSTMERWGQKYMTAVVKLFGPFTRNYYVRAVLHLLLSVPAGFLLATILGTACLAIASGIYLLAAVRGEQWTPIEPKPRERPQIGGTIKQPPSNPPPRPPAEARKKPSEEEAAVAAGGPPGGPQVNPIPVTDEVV
row,SMILES,Ki [nM]
1,Cc1nc(O[C@@H](C)c2ccccc2)ccc1C(=O)Nc1nnc(-c2ccncc2)s1 [(43)],79
2,Cc1nc(OCc2ccccc2)ccc1C(=O)Nc1nnc(-c2ccncc2)s1 [(45)],77
3,COc1cc(C(=O)Nc2nnc(-c3ccncc3)s2)cnc1O[C@@H](C)c1ccccn1 [(46)],35
4,C[C@H](Oc1ncc(C(=O)Nc2nnc(-c3ccncc3)s2)cc1NCCN(C)C)c1ccccc1 [(51)],21
5,C[C@H](Oc1ncc(C(=O)Nc2nnc(-c3ccncc3)s2)cc1NCC1CCOCC1)c1ccccc1 [(52)],18
6,C[C@H](Oc1ncc(C(=O)Nc2nnc(-c3ccncc3)s2)cc1NCC1CCN(C)CC1)c1ccccc1 [(53)],19
7,C[C@H](Oc1ncc(C(=O)Nc2nnc(-c3ccncc3)s2)cc1NCCCN(C)C)c1ccccc1 [(63)],31
8,C[C@H](Oc1ncc(C(=O)Nc2nnc(-c3ccncc3)s2)cc1NCCO)c1ccccc1 [(65)],51
9,C[C@H](Oc1ncc(C(=O)Nc2nnc(-c3ccncc3)s2)cc1NCc1cn(C)cn1)c1ccccc1 [(66)],66
10,C[C@H](Oc1ncc(C(=O)Nc2nnc(-c3ccncc3)s2)cc1NC1CCN(C)CC1)c1ccccc1 [(67)],75
11,C[C@H](Oc1ncc(C(=O)Nc2nnc(-c3ccncc3)s2)cc1NCCN1CCOCC1)c1ccccc1 [(68)],72
12,C[C@H](Oc1ncc(C(=O)Nc2nnc(-c3ccncc3)s2)cc1N1CCN(C)CC1)c1ccccc1 [(69)],55
13,CNc1cc(C(=O)Nc2nnc(-c3ccncc3)s2)cnc1O[C@@H](CCN(C)C)c1ccccc1 [(75)],90
14,COc1cc(C(=O)Nc2nnc(-c3ccncc3)s2)ccc1O[C@@H]1CCc2ccccc21 [(80)],27
15,COc1cc(C(=O)Nc2nnc(-c3ccncc3)s2)ccc1OC1CCCc2ccccc21 (stereo not drawn) [(82)],38
16,COc1cc(C(=O)Nc2nnc(-c3ccncc3)s2)ccc1OCc1cscn1 [(83)],80
17,CC(Oc1ccc(C(=O)Nc2nnc(-c3ccncc3)s2)cc1OCCN(C)C)c1ccccc1 (stereo not drawn) [(85)],37
18,COCCOc1cc(C(=O)Nc2nnc(-c3ccncc3)s2)ccc1OC(C)c1ccccc1 (stereo not drawn) [(86)],74
19,COc1cc(C(=O)Nc2nnc(-c3ccncc3)s2)ccc1OCc1cccnc1C [(89)],91
20,COc1cc(C(=O)Nc2nnc(-c3ccncc3)s2)ccc1OCc1ccc(C)cn1 [(90)],100

row,SMILES,Ki [nM]
1,COc1cc(C(=O)Nc2nnc(-c3ccncc3)s2)ccc1OCc1cc(C)on1 [(91)],78
2,COc1ccc(COc2ccc(C(=O)Nc3nnc(-c4ccncc4)s3)cc2OC)cc1 [(92)],32
3,COc1cc(C(=O)Nc2nnc(-c3ccncc3)s2)ccc1OCc1ccccc1F [(93)],52
4,COc1cc(C(=O)Nc2nnc(-c3ccncc3)s2)ccc1OCc1ccc(F)cc1 [(96)],14
5,COc1cc(C(=O)Nc2nnc(-c3ccncc3)s2)ccc1OCc1cc(C2CC2)on1 [(98)],74
6,COc1cc(C(=O)Nc2nnc(-c3ccncn3)s2)ccc1O[C@@H](C)c1ccccn1 [(102)],87
7,COc1cc(C(=O)Nc2nnc(-c3ccncc3F)s2)ccc1O[C@@H](C)c1ccccn1 [(103)],13
8,COc1cc(C(=O)Nc2nnc(-c3ccncc3F)s2)ccc1O[C@@H](CO)c1ccccc1 [(105)],19
9,COc1cc(C(=O)Nc2nnc(-c3ccncc3F)s2)ccc1O[C@@H](CN(C)C)c1ccccc1 [(106)],22
10,O=C(Nc1nnc(-c2ccncc2)s1)c1cnc(O[C@@H](CO)c2ccccc2)c(Cl)c1 [(108)],92
11,COc1cc(C(=O)Nc2nnc(-c3ccncn3)s2)ccc1OCc1ccccc1 [(111)],75
12,COc1cc(C(=O)Nc2nnc(-c3ccncn3)s2)cnc1O[C@@H](CN(C)C)c1ccccc1 [(114)],37
13,COc1cc(C(=O)Nc2nnc(-c3ccnc(C)c3)s2)ccc1O[C@@H](CN(C)C)c1ccccc1 [(115)],110
14,COc1cc(C(=O)Nc2nnc(-c3ccncc3)s2)ccc1O[C@@H](C)Cc1ccccc1 [(116)],46
15,COc1cc(C(=O)Nc2nnc(-c3ccncc3)s2)ccc1CN(C)c1ccccn1 [(120)],93
16,COc1cc(C(=O)Nc2nnc(-c3ccncc3)s2)ccc1Cn1ccc2ccccc21 [(121)],35
17,CCC(Oc1ccc(C(=O)Nc2nnc(-c3ccncc3)s2)cn1)c1ccccc1 (stereo not drawn) [(134)],71
18,O=C(Nc1nnc(-c2ccncc2)s1)c1ccc(OC2CCc3ccccc32)nc1 (stereo not drawn) [(136)],47
19,C[C@H](Nc1ccc(C(=O)Nc2nnc(-c3ccncc3)s2)cn1)c1ccccc1 [(149)],78
20,COc1cc(C(=O)Nc2nnc(-c3ccncc3)s2)ccc1OC1CCc2ncccc21 (stereo not drawn) [(151)],15

row,SMILES,Ki [nM]
1,COc1cc(C(=O)Nc2nnc(-c3ccncc3)s2)ccc1OC1COc2ccccc21 (stereo not drawn) [(152)],38
2,COc1cc(C(=O)Nc2nnc(-c3ccncc3)s2)ccc1OC(c1ccccc1)C1CC1 (stereo not drawn) [(154)],33
3,COc1cc(C(=O)Nc2nnc(-c3ccncn3)s2)ccc1O[C@@H](C)c1ccccc1 [(157)],110
4,COc1cc(C(=O)Nc2nnc(-c3ccncc3)s2)ccc1OC1Cc2ccccc2C1 [(158)],22
5,COc1cc(C(=O)Nc2nnc(-c3ccncc3)s2)ccc1OCCc1ccccc1 [(161)],79
6,COc1cc(C(=O)Nc2nnc(-c3ccncc3)s2)ccc1OCc1ccn(C)n1 [(162)],95
7,O=C(Nc1nnc(-c2ccncc2)s1)c1ccc(OCc2ccccc2)cc1F [(168)],100
8,CN(C)C(=O)[C@H](Cc1ccccc1)Oc1ccc(C(=O)Nc2nnc(-c3ccncc3)s2)cn1 [(174)],96
9,C[C@H](COc1ccc(C(=O)Nc2nnc(-c3ccncc3)s2)cn1)c1ccccc1 [(178)],85
10,COc1ccc(CCCOc2ccc(C(=O)Nc3nnc(-c4ccncc4)s3)cn2)cc1 [(180)],32
11,Cc1cc(C(=O)Nc2nnc(-c3ccncc3)s2)cnc1O[C@@H](CN1CCOCC1)c1ccccc1 [(182)],37
12,COCC(Oc1ccc(C(=O)Nc2nnc(-c3ccncc3)s2)cc1OC)c1ccccc1 (stereo not drawn) [(183)],55
13,COc1cc(C(=O)Nc2nnc(-c3ccncc3)s2)ccc1O[C@H](CN1CCOCC1)c1ccccc1 [(185)],89
14,O=C(Nc1nnc(-c2ccncc2)s1)c1ccc(O[C@@H](CN2CCC(F)(F)C2)c2ccccc2)nc1 [(187)],55
15,COc1cc(C(=O)Nc2nnc(-c3ccncc3)s2)ccc1O[C@@H](CO)c1ccc(F)cc1 [(197)],24
16,COc1cc(C(=O)Nc2nnc(-c3ccncc3)s2)ccc1O[C@@H](CN(C)C)c1ccc(F)cc1 [(198)],25
17,COc1cc(C(=O)Nc2nnc(-c3ccncc3)s2)ccc1O[C@H](CO)c1ccc(F)cc1 [(199)],47
18,COc1cc(C(=O)Nc2nnc(-c3ccncc3)s2)ccc1O[C@H](CN(C)C)c1ccc(F)cc1 [(200)],110
19,"CC(Oc1ccc(C(=O)Nc2nnc(-c3ccncc3)s2)cc1OCC1CCNCC1)c1ccccc1 (stereo not drawn) [Example 1, 4-(1-phenylethoxy)-3-(piperidin-4-ylmethoxy)-N-(5-(pyridin-4-yl)-1,3,4-thiadiazol-2-yl)benzamide]",18
20,"COc1cc(C(=O)Nc2nnc(-c3ccncc3)s2)ccc1O[C@@H](CO)c1ccccc1 [Example 7, (R)-4-(2-hydroxy-1-phenylethoxy)-3-methoxy-N-(5-(pyridin-4-yl)-1,3,4-thiadiazol-2-yl)benzamide]",22
